Among the data in ChEMBL document CHEMBL5316381, “Discovery of [1,2,3]Triazolo[4,5-c]quinoline Derivatives as a New Class of Ataxia-Telangiectasia Mutated Kinase Inhibitors” (ACS Med Chem Lett, 2023) are IC50 values, retold here.

The target in this experiment is Serine-protein kinase ATM (Homo sapiens, UniProt Q13315). Put plainly: Inhibition of ATM (unknown origin) using GST-cMyc-p53 as substrate incubated for 30 mins in presence of Mg/ATP mix by HTRF-based analysis. (In general: In TR-FRET formats the signal depends on donor and acceptor labels being close together.)
Chain of Serine-protein kinase ATM (Q13315 whole entry): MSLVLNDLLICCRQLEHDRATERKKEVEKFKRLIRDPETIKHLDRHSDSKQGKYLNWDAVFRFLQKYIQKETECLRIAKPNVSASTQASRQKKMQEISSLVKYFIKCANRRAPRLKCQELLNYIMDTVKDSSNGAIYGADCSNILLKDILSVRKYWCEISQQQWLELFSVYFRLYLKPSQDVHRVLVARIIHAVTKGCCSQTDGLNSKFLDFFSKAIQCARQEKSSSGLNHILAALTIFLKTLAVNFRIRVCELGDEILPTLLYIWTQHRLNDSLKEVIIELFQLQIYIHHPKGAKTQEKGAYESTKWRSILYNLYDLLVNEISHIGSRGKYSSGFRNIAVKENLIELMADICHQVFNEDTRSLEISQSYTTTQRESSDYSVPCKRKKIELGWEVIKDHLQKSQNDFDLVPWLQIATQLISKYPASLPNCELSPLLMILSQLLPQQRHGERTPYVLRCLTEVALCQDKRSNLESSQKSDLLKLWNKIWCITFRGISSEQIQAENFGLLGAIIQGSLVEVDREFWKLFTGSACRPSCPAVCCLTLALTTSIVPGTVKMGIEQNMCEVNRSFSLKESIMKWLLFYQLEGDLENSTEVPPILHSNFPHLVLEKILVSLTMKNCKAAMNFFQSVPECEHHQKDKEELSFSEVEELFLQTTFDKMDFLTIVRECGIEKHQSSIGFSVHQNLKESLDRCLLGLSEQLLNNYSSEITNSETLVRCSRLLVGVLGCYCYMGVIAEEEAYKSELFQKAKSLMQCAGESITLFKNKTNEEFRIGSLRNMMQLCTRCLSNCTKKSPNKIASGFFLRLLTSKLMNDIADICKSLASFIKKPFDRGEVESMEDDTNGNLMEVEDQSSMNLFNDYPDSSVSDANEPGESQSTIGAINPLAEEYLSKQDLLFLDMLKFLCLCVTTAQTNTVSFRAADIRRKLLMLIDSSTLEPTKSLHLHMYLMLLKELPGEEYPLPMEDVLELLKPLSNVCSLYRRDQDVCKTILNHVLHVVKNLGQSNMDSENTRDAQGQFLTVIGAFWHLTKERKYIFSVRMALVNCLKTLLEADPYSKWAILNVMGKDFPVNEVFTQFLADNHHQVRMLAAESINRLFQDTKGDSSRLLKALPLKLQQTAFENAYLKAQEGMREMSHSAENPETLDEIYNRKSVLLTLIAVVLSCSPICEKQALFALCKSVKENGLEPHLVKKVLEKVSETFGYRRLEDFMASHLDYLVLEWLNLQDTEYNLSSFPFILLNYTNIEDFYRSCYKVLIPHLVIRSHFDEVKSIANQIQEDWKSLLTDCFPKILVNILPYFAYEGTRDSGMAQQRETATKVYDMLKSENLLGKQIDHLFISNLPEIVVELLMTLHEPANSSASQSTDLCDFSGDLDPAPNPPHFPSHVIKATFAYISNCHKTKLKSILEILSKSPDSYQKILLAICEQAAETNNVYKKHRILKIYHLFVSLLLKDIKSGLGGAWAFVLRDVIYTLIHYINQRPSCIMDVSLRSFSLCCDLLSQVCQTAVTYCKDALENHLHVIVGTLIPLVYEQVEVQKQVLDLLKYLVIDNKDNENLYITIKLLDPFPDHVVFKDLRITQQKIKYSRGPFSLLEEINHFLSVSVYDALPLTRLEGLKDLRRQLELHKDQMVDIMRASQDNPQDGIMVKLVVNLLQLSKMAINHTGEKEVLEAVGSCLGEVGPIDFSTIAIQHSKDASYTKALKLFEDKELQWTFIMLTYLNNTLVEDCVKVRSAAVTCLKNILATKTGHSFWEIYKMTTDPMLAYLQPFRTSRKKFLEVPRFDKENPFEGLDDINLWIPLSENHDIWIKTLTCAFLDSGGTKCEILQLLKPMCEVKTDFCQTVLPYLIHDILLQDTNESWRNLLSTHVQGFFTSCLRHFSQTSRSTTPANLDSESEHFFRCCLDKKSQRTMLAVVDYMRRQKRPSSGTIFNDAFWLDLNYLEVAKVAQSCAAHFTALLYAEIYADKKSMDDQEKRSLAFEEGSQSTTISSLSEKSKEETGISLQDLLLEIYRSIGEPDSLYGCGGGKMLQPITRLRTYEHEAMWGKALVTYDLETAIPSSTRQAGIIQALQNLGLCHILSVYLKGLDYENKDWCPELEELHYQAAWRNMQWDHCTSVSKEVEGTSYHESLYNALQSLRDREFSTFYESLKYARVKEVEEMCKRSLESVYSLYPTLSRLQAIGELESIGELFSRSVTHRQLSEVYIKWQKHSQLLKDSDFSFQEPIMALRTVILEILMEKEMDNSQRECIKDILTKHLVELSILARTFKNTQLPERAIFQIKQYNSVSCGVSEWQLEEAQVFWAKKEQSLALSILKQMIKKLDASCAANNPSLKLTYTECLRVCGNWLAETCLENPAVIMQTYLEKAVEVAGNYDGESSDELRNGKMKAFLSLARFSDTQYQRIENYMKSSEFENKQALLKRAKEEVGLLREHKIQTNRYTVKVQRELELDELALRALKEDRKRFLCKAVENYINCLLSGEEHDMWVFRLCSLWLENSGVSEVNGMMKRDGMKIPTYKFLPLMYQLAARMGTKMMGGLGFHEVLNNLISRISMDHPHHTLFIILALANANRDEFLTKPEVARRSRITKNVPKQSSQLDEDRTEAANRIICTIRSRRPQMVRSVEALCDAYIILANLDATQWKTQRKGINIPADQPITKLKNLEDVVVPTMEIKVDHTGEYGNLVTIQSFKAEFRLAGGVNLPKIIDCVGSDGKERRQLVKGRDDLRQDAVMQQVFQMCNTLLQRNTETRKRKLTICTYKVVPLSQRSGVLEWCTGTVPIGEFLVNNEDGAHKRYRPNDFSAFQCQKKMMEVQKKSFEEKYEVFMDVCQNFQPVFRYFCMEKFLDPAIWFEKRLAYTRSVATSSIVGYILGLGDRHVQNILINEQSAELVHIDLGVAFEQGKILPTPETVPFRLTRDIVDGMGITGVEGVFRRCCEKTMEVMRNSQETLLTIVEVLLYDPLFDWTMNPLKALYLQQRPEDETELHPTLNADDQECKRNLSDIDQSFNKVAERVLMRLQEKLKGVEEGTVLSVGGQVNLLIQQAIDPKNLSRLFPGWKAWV
Regarding `C[C@@H](c1ccccc1)n1nnc2cnc3ccc(-c4ccc(N)nc4)cc3c21`, the IC50 was determined as 45 nM.

Consider `C[C@H](c1ccccc1)n1nnc2cnc3ccc(-c4ccc(N5CCCC5)nc4)cc3c21`, for which the 50% inhibitory concentration (IC50) is 71 nM.

Take `C[C@H](c1ccccc1)n1nnc2cnc3ccc(-c4cnc(N)nc4)cc3c21`: the IC50 is 15 nM.

Take `CC[C@H](c1ccccc1)n1nnc2cnc3ccc(-c4ccc(N)nc4)cc3c21`: the IC50 came out at 9 nM.

As to `C[C@H](c1ccccc1)n1nnc2cnc3ccc(-c4ccc(N)cc4)cc3c21`, the half-maximal inhibitory concentration (IC50) was 15 nM.

For the compound `COc1ccc(-c2ccc3ncc4nnn([C@H](C)c5ccccc5)c4c3c2)cn1`, the half-maximal inhibitory concentration (IC50) turned out to be 13 nM.

Take `C[C@H](c1ccccc1)n1nnc2cnc3ccc(-c4ccc(O)nc4)cc3c21`: the IC50 turned out to be 25 nM.

Consider `C[C@H](c1ccccc1)n1nnc2cnc3ccc(-c4cnc(N(C)C)nc4)cc3c21`, for which the IC50 stood at 482 nM.

In the case of `C[C@H](c1ccccc1)n1nnc2cnc3ccc(-c4ccc(OCCCN5CCCCC5)nc4)cc3c21`, the half-inhibitory concentration (IC50) was found to be 2 nM.

As for `C[C@H](c1ccc(F)cc1)n1nnc2cnc3ccc(-c4ccc(N)nc4)cc3c21`, the half-inhibitory concentration (IC50) came out at 4 nM.

Turning to `C[C@H](c1ccccc1)n1nnc2cnc3ccc(-c4ccc(F)cc4)cc3c21`, the IC50 turned out to be 174 nM.

As for `C[C@H](c1ccccc1)n1nnc2cnc3ccc(-c4ccc(OCCCCN(C)C)nc4)cc3c21`, the IC50 turned out to be 10 nM.

`CC[C@@H](c1ccccc1)n1nnc2cnc3ccc(-c4ccc(N)nc4)cc3c21`: the IC50 stood at 79 nM.

Consider `Cc1ccc(-c2ccc3ncc4nnn([C@H](C)c5ccccc5)c4c3c2)cn1`, for which the IC50 is 35 nM.

With `C[C@H](c1ccccc1)n1nnc2cnc3ccc(-c4ccc(Cl)nc4)cc3c21`, the IC50 amounted to 31 nM.

In the case of `COc1cccc([C@@H](C)n2nnc3cnc4ccc(-c5ccc(N)nc5)cc4c32)c1`, the concentration for half-maximal inhibition (IC50) was found to be 5 nM.

In the case of `Cn1nnc2cnc3ccc(-c4ccc(N)nc4)cc3c21`, the concentration for half-maximal inhibition (IC50) was 243 nM.

Turning to `C[C@H](c1ccccc1)n1nnc2cnc3ccc(-c4ccc(OCCN(C)C)nc4)cc3c21`, the IC50 came out at 19 nM.

On to `C[C@H](c1ccccc1)n1nnc2cnc3ccc(-c4ccc(N)nc4)cc3c21`, for which the IC50 turned out to be 2 nM.

For the compound `Nc1ccc(-c2ccc3ncc4nnn(Cc5ccccc5)c4c3c2)cn1`, the IC50 stood at 8 nM.

As to `C[C@H](c1ccccc1)n1nnc2cnc3ccc(-c4ccc(OCCCN5CCCC5)nc4)cc3c21`, the IC50 amounted to 2 nM.

With `C[C@@H](c1ccc(F)cc1)n1nnc2cnc3ccc(-c4ccc(N)nc4)cc3c21`, the half-maximal inhibitory concentration (IC50) is 250 nM.

Take `C[C@H](c1ccccc1)n1nnc2cnc3ccc(-c4ccc(N5CCN(C)CC5)nc4)cc3c21`: the 50% inhibitory concentration (IC50) was 6 nM.

`CC(C)n1nnc2cnc3ccc(-c4ccc(N)nc4)cc3c21`: the IC50 was found to be 20 nM.

Turning to `C[C@H](c1ccccc1)n1nnc2cnc3ccc(-c4ccc(C#N)nc4)cc3c21`, the IC50 was 167 nM.

As to `C[C@@H](c1cccc(F)c1)n1nnc2cnc3ccc(-c4ccc(N)nc4)cc3c21`, the 50% inhibitory concentration (IC50) came out at 53 nM.

In the case of `C[C@H](c1ccccc1)n1nnc2cnc3ccc(-c4ccc(O)cc4)cc3c21`, the IC50 was 52 nM.

With `C[C@H](c1ccccc1)n1nnc2cnc3ccc(-c4cccnc4)cc3c21`, the IC50 worked out at 9 nM.

Take `COc1ccc([C@H](C)n2nnc3cnc4ccc(-c5ccc(N)nc5)cc4c32)cc1`: the IC50 was 103 nM.

In the case of `C[C@H](c1ccccc1)n1nnc2cnc3ccc(-c4ccc(OCCCN5CCN(C)CC5)nc4)cc3c21`, the half-maximal inhibitory concentration (IC50) was 2 nM.

On to `CC(=O)Nc1ccc(-c2ccc3ncc4nnn([C@H](C)c5ccccc5)c4c3c2)cn1`, for which the IC50 worked out at 13 nM.

With `C[C@H](c1ccccc1)n1nnc2cnc3ccc(-c4ccc(C(F)(F)F)nc4)cc3c21`, the IC50 came to 225 nM.

Turning to `CNCCCOc1ccc(-c2ccc3ncc4nnn([C@H](C)c5ccccc5)c4c3c2)cn1`, the IC50 was 166 nM.

For `C[C@H](c1cccc(F)c1)n1nnc2cnc3ccc(-c4ccc(N)nc4)cc3c21`, the IC50 stood at 4 nM.

`C[C@H](c1ccccc1)n1nnc2cnc3ccc(-c4ccnc(N)c4)cc3c21`: the IC50 was found to be 22 nM.

By IC50 is commonly meant the concentration that inhibits the measured activity by half.
